Columns and labels:
[1] = Molar extinction coefficient by UV-visible absorption spectra in distilled water; assay type: physicochemical; settings: at about 405 nm, 10 mm quartz cuvettes
Source text: FIG. 5 is a graph of a molar extinction coefficient (ε)-wavelength of Examples according to the present disclosure.

[2] = tested on: Murine NIH-3T3 fibroblasts; experiment: Cytotoxicity of the photoinitiator (cell viability of fibroblasts); assay type: cell-based; settings: concentration of about 0.2% (w/v), about 24 hours
Description: Murine NIH-3T3 fibroblasts purchased from ATCC (Manassas, VA, USA) were cultured in a cell culture dish in a size of about 100 mm along with DMEM supplemented with about 10% FBS and penicillin-streptomycin (about 100 UI/ml). The cultured cells were kept at about 37° C. in a sterile culture machine (Labogene, Seoul, Korea) containing about 5% CO2 until reaching the confluence.
To conduct cell viability analysis, fibroblasts were seeded into 24-well-plates (2×10^4 cells/well) and cultured in a sterile culture machine at about 37° C. for about 12 hours, and then the media were removed.
In particular, by substituting with highly biocompatible Mg^2+ ions, it was identified that there was a remarkable effect on reduction in the cytotoxicity.

[3] = in water at about 25° C.

SMILES: Cc1cc(C)c(C(=O)P(=O)([O-])c2ccccc2)c(C)c1.[Li+] [LAP, Lithium phenyl-2,4,6-trimethylbenzoylphosphination]
- molar extinction coefficient [1]: about 29 M^−1·cm^−1
- cell viability [2]: about 46%
- maximum solubility [3]: about 159.7 mM

Reference: US20250222169A1, “PHOTOINTIATOR, BIOINK INCLUDING THE SAME, AND METHODE OF MANUFACTURING HYDROGEL” (PUSAN NATIONAL UNIVERSITY INDUSTRY-UNIVERSITY COOPERATION …, priority 2024, published 2025)
